# Assay results reported in ChEMBL document CHEMBL3885881, “DrugMatrix”.
# Organism: Rattus norvegicus
# Assay: DrugMatrix - Regimen: Daily Repeat
# Type: toxicity, organism-based, Sprague-Dawley
# Parameters: regimen Daily Repeat, gender Male, age 6-8 weeks
# Settings: in vivo, iv, vehicle 100 % SALINE; for ABSOLUTE BASOPHIL / ABSOLUTE EOSINOPHIL / ABSOLUTE LYMPHOCYTE / ABSOLUTE MONOCYTE / ABSOLUTE SEGMENTED NEUTROPHIL / BASOPHIL / EOSINOPHIL / ERYTHROCYTE COUNT / HEMATOCRIT / HEMOGLOBIN / LEUKOCYTE COUNT / LYMPHOCYTE / MEAN CORPUSCULAR HEMOGLOBIN / MEAN CORPUSCULAR HEMOGLOBIN CONCENTRATION / MEAN CORPUSCULAR VOLUME / MONOCYTE / NEUTROPHIL / NUCLEATED RED BLOOD CELLS / PLATELET COUNT: tissue Blood; for ALANINE AMINOTRANSFERASE / ALBUMIN / ALKALINE PHOSPHATASE / ASPARTATE AMINOTRANSFERASE / BLOOD UREA NITROGEN / CARBON DIOXIDE / CHLORIDE / CHOLESTEROL / CREATINE PHOSPHOKINASE / CREATININE / GLUCOSE / LACTATE DEHYDROGENASE / LIPASE / PHOSPHORUS / POTASSIUM / SODIUM / TOTAL BILIRUBIN / TOTAL PROTEIN / URIC ACID: tissue Plasma
# [1] = 0.4 mg/kg, 72 h, dose level Low, time 3 day
# [2] = 0.4 mg/kg, 120 h, dose level Low, time 5 day
# [3] = 4 mg/kg, 72 h, dose level High, time 3 day
# [4] = 4 mg/kg, 120 h, dose level High, time 5 day
structure (smiles),measurement,setting,value
CCCCN1CCCC[C@H]1C(=O)Nc1c(C)cccc1C [LEVOBUPIVACAINE],ABSOLUTE BASOPHIL,[1],0 CELLS/uL
same,ABSOLUTE EOSINOPHIL,[1],254.67 CELLS/uL
same,ABSOLUTE LYMPHOCYTE,[1],15126.67 CELLS/uL
same,ABSOLUTE MONOCYTE,[1],468.33 CELLS/uL
same,ABSOLUTE SEGMENTED NEUTROPHIL,[1],1383.67 CELLS/uL
same,BASOPHIL,[1],0%
same,EOSINOPHIL,[1],1.33%
same,ERYTHROCYTE COUNT,[1],5.99 x10E6/uL
same,HEMATOCRIT,[1],37.7%
same,HEMOGLOBIN,[1],13.83 G/DL
same,LEUKOCYTE COUNT,[1],17.23 x10E3/uL
same,LYMPHOCYTE,[1],88.33%
same,MEAN CORPUSCULAR HEMOGLOBIN,[1],23.17 pg
same,MEAN CORPUSCULAR HEMOGLOBIN CONCENTRATION,[1],36.7 G/DL
same,MEAN CORPUSCULAR VOLUME,[1],63.07 fL
same,MONOCYTE,[1],2.67%
same,NEUTROPHIL,[1],7.67%
same,NUCLEATED RED BLOOD CELLS,[1],0 /100WBC
same,PLATELET COUNT,[1],1404.67 x10E3/uL
same,ALANINE AMINOTRANSFERASE,[1],48.33 u/L
same,ALBUMIN,[1],4.3 G/DL
same,ALKALINE PHOSPHATASE,[1],344.33 u/L
same,ASPARTATE AMINOTRANSFERASE,[1],82.67 u/L
same,BLOOD UREA NITROGEN,[1],17.33 mg/dL
same,CARBON DIOXIDE,[1],22 mmol/L
same,CHLORIDE,[1],106 MEQ/L
same,CHOLESTEROL,[1],74 mg/dL
same,CREATINE PHOSPHOKINASE,[1],243 u/L
same,CREATININE,[1],0.23 mg/dL
same,GLUCOSE,[1],167.67 mg/dL
same,LACTATE DEHYDROGENASE,[1],317 u/L
same,LIPASE,[1],9 u/L
same,PHOSPHORUS,[1],13.87 mg/dL
same,POTASSIUM,[1],6.74 MEQ/L
same,SODIUM,[1],148.9 MEQ/L
same,TOTAL BILIRUBIN,[1],0.2 mg/dL
same,TOTAL PROTEIN,[1],6.3 G/DL
same,URIC ACID,[1],2.5 mg/dL
same,ABSOLUTE BASOPHIL,[2],0 CELLS/uL
same,ABSOLUTE EOSINOPHIL,[2],140.33 CELLS/uL
same,ABSOLUTE LYMPHOCYTE,[2],13101.33 CELLS/uL
same,ABSOLUTE MONOCYTE,[2],294.33 CELLS/uL
same,ABSOLUTE SEGMENTED NEUTROPHIL,[2],1864 CELLS/uL
same,BASOPHIL,[2],0%
same,EOSINOPHIL,[2],1%
same,ERYTHROCYTE COUNT,[2],5.93 x10E6/uL
same,HEMATOCRIT,[2],37%
same,HEMOGLOBIN,[2],14 G/DL
same,LEUKOCYTE COUNT,[2],15.4 x10E3/uL
same,LYMPHOCYTE,[2],85.33%
same,MEAN CORPUSCULAR HEMOGLOBIN,[2],23.6 pg
same,MEAN CORPUSCULAR HEMOGLOBIN CONCENTRATION,[2],37.83 G/DL
same,MEAN CORPUSCULAR VOLUME,[2],62.47 fL
same,MONOCYTE,[2],2%
same,NEUTROPHIL,[2],11.67%
same,NUCLEATED RED BLOOD CELLS,[2],0.33 /100WBC
same,PLATELET COUNT,[2],1119 x10E3/uL
same,ALANINE AMINOTRANSFERASE,[2],67.67 u/L
same,ALBUMIN,[2],4.13 G/DL
same,ALKALINE PHOSPHATASE,[2],394 u/L
same,ASPARTATE AMINOTRANSFERASE,[2],122.67 u/L
same,BLOOD UREA NITROGEN,[2],20 mg/dL
same,CARBON DIOXIDE,[2],24.67 mmol/L
same,CHLORIDE,[2],107.33 MEQ/L
same,CHOLESTEROL,[2],54.33 mg/dL
same,CREATINE PHOSPHOKINASE,[2],430.33 u/L
same,CREATININE,[2],0.2 mg/dL
same,GLUCOSE,[2],154.33 mg/dL
same,LACTATE DEHYDROGENASE,[2],798.67 u/L
same,LIPASE,[2],8.67 u/L
same,PHOSPHORUS,[2],13.03 mg/dL
same,POTASSIUM,[2],5.58 MEQ/L
same,SODIUM,[2],148.47 MEQ/L
same,TOTAL BILIRUBIN,[2],0.1 mg/dL
same,TOTAL PROTEIN,[2],6.2 G/DL
same,URIC ACID,[2],1.57 mg/dL
same,ABSOLUTE BASOPHIL,[3],0 CELLS/uL
same,ABSOLUTE EOSINOPHIL,[3],0 CELLS/uL
same,ABSOLUTE LYMPHOCYTE,[3],11600.33 CELLS/uL
same,ABSOLUTE MONOCYTE,[3],405 CELLS/uL
same,ABSOLUTE SEGMENTED NEUTROPHIL,[3],1828 CELLS/uL
same,BASOPHIL,[3],0%
same,EOSINOPHIL,[3],0%
same,ERYTHROCYTE COUNT,[3],5.58 x10E6/uL
same,HEMATOCRIT,[3],35.27%
same,HEMOGLOBIN,[3],13.37 G/DL
same,LEUKOCYTE COUNT,[3],13.83 x10E3/uL
same,LYMPHOCYTE,[3],83.67%
same,MEAN CORPUSCULAR HEMOGLOBIN,[3],23.93 pg
same,MEAN CORPUSCULAR HEMOGLOBIN CONCENTRATION,[3],37.9 G/DL
same,MEAN CORPUSCULAR VOLUME,[3],63.2 fL
same,MONOCYTE,[3],3%
same,NEUTROPHIL,[3],13.33%
same,NUCLEATED RED BLOOD CELLS,[3],0.33 /100WBC
same,PLATELET COUNT,[3],1307 x10E3/uL
same,ALANINE AMINOTRANSFERASE,[3],41.33 u/L
same,ALBUMIN,[3],4.27 G/DL
same,ALKALINE PHOSPHATASE,[3],430.67 u/L
same,ASPARTATE AMINOTRANSFERASE,[3],83.33 u/L
same,BLOOD UREA NITROGEN,[3],15.67 mg/dL
same,CARBON DIOXIDE,[3],24.67 mmol/L
same,CHLORIDE,[3],105.67 MEQ/L
same,CHOLESTEROL,[3],62 mg/dL
same,CREATINE PHOSPHOKINASE,[3],275.67 u/L
same,CREATININE,[3],0.23 mg/dL
same,GLUCOSE,[3],152 mg/dL
same,LACTATE DEHYDROGENASE,[3],383 u/L
same,LIPASE,[3],8.67 u/L
same,PHOSPHORUS,[3],13.3 mg/dL
same,POTASSIUM,[3],6.04 MEQ/L
same,SODIUM,[3],146.8 MEQ/L
same,TOTAL BILIRUBIN,[3],0.2 mg/dL
same,TOTAL PROTEIN,[3],5.77 G/DL
same,URIC ACID,[3],1.43 mg/dL
same,ABSOLUTE BASOPHIL,[4],0 CELLS/uL
same,ABSOLUTE EOSINOPHIL,[4],0 CELLS/uL
same,ABSOLUTE LYMPHOCYTE,[4],14035 CELLS/uL
same,ABSOLUTE MONOCYTE,[4],328 CELLS/uL
same,ABSOLUTE SEGMENTED NEUTROPHIL,[4],2037 CELLS/uL
same,BASOPHIL,[4],0%
same,EOSINOPHIL,[4],0%
same,ERYTHROCYTE COUNT,[4],5.6 x10E6/uL
same,HEMATOCRIT,[4],34.2%
same,HEMOGLOBIN,[4],13.05 G/DL
same,LEUKOCYTE COUNT,[4],16.4 x10E3/uL
same,LYMPHOCYTE,[4],85.5%
same,MEAN CORPUSCULAR HEMOGLOBIN,[4],23.3 pg
same,MEAN CORPUSCULAR HEMOGLOBIN CONCENTRATION,[4],38.15 G/DL
same,MEAN CORPUSCULAR VOLUME,[4],61.1 fL
same,MONOCYTE,[4],2%
same,NEUTROPHIL,[4],12.5%
same,NUCLEATED RED BLOOD CELLS,[4],0.5 /100WBC
same,PLATELET COUNT,[4],1167 x10E3/uL
same,ALANINE AMINOTRANSFERASE,[4],38 u/L
same,ALBUMIN,[4],4.35 G/DL
same,ALKALINE PHOSPHATASE,[4],311 u/L
same,ASPARTATE AMINOTRANSFERASE,[4],72.5 u/L
same,BLOOD UREA NITROGEN,[4],18 mg/dL
same,CARBON DIOXIDE,[4],26.5 mmol/L
same,CHLORIDE,[4],103 MEQ/L
same,CHOLESTEROL,[4],57.5 mg/dL
same,CREATINE PHOSPHOKINASE,[4],325.5 u/L
same,CREATININE,[4],0.17 mg/dL
same,GLUCOSE,[4],150.5 mg/dL
same,LACTATE DEHYDROGENASE,[4],321.5 u/L
same,LIPASE,[4],8 u/L
same,PHOSPHORUS,[4],13.4 mg/dL
same,POTASSIUM,[4],6.04 MEQ/L
same,SODIUM,[4],146.65 MEQ/L
same,TOTAL BILIRUBIN,[4],0.1 mg/dL
same,TOTAL PROTEIN,[4],6.05 G/DL
same,URIC ACID,[4],1.5 mg/dL
